Patent publication US5932580A, “PDGF receptor kinase inhibitory compounds their preparation and compositions” (priority 1997, dated 1999)
“Also recorded” adds a separate entry of the source. Like-named read-outs stand apart in the source and are kept apart here.

Tests used:
EGFR = target: T1, EGFR (Mus musculus, UniProt Q01279); experiment: EGFR autophosphorylation, isolated membranes or intact Swiss 3T3 cells; format: biochemical; conditions: read-out: IC50 (50% inhibition of phosphorylation) EGFR
T1 construct: Membranes were prepared from confluent cultures of Swiss 3T3 cells; endogenous in cells; host or cells: Swiss 3T3 (obtained from E. Rozengurt, London)
Description: Membrane autophosphorylation assays: Membranes were prepared from confluent cultures of Swiss 3T3 cells as described [22]. For measuring receptor autophosphorylation, 10 μg membrane protein per assay were incubated for 20 min on ice in the presence of 1.2 μg/ml EGF or 2 μg/ml PDGF, or both; 50 mM Hepes (pH 7.5); and 3 mm MnCl2 (final concentrations) in a volume of 45 μl. In order to test the effects and determine the IC50 value of various tyrphostins, these were added in a volume of 0.5 μl (in DMSO; final concentration, 0.5%) 15 min before addition of the growth factors, in a range of concentrations. […] For quantification of radioactivity in electrophoresis gels, a Phospho-Imager (Molecular Dynamics, Fuji, or Bio-Rad) was used according to the instructions of the manufacturers. […]

PDGFR = PDGFR autophosphorylation, isolated membranes or intact Swiss 3T3 cells; format: biochemical; conditions: read-out: IC50 (50% inhibition of phosphorylation) PDGFR
Description: Assay of receptor autophosphorylation in intact 3T3 cells: Confluent Swiss 3T3 cells in 24-well plates (Nunc) were incubated for 20-24 hours in serum-free DMEM. Subsequently, tyrphostins were added at concentrations ranging from 0 to 100 μM (final DMSO concentration, 0.5%) and the incubation was continued for 6-8 hours. The cells were then stimulated with 100 ng/ml PDGF-BB for 5 min at room temperature or 600 ng/ml EGF for 2.5 min on ice. The growth factor treatment was terminated by washing twice with ice-cold PBS and the cells were scraped off the wells in 60 μl lysis buffer containing 20 mM Hepes (pH 7.4), 150 mM NaCl, 1% Triton X-100, 10 mM sodium pyrophosphate, 50 mM NaF, 2 mM sodium-o-vanadate, 20 μm zinc acetate, 10 nM EDTA, 2 mM [ethylenebis(oxyethilenenitrilo)] tetraacetic acid, 1 mM phenylmethylsulfonyl fluoride, and 5 μg/ml leupeptin.
The cell lysates were clarified by centrifugation (cooled microfuge, 17,000 rpm, 15 min) and analyzed by SDS-PAGE (6.5% gels) and immunoblotting with anti-phosphotyrosine antibodies (either PY 20, ICN, and subsequently a peroxidase-coupled secondary antibody, or RC20-peroxidase conjugate, Affinity, Nottingham, United Kingdom). The blots were developed with a chemiluminescence detection system (Western Light, Tropix, or ECL, Amersham). In some experiments PDGF receptors were immunoprecipitated with PDGF-R3 or DIG-1 antibodies as described prior to the analysis by immunoblotting with anti-phosphotyrosine antibodies.
Membrane autophosphorylation assays: Membranes were prepared from confluent cultures of Swiss 3T3 cells as described. For measuring receptor autophosphorylation, 10 μg membrane protein per assay were incubated for 20 min on ice in the presence of 1.2 μg/ml EGF or 2 μg/ml PDGF, or both; 50 mM Hepes (pH 7.5); and 3 mm MnCl2 (final concentrations) in a volume of 45 μl. […] For quantification of radioactivity in electrophoresis gels, a Phospho-Imager (Molecular Dynamics, Fuji, or Bio-Rad) was used according to the instructions of the manufacturers. […]

SRC kinase = target: T2, SRC kinase (Gallus gallus, UniProt P00523, Y527F); experiment: Src kinase activity assay (immunoprecipitate from src-transformed NIH 3T3 cells); format: biochemical, chicken; conditions: read-out: IC50 (50% inhibition of phosphorylation) SRC kinase
T2 construct: expressed in transfected cells; host or cells: NIH 3T3, stably transfected (gift of S. Courtneidge, Heidelberg)
Description: Src kinase activity assay: src-transformed NIH 3T3 cells were grown in 24-well plates to confluency; rinsed twice with a solution containing 20 mM Tris, 0.1 mM sodium-o-vanadate, and 150 mM NaCl (pH 7.5); and lysed in 100 μl/well of lysis buffer containing 20 mM Tris (pH 8.0), 150 mM NaCl, 1% Nonidet P-40, 2.5 mM EDTA, 10 mM NaF, 1% trasylol, and 20 μm leupeptin. The lysate was clarified by centrifugation and subjected to immunoprecipitation with the anti-Src monoclonal antibody MAb 327 (Oncogene Science; 0.5 μg antibody/80 μg protein) for 1 hour at 4° C. Then, goat anti-mouse IgG (Sigma; 0.2 μg per 0.5 μg monoclonal antibody 327) was added and incubation was continued for 30 mi followed by another 40 min of incubation with 10 μl of protein A-Sepharose Cl-4B (Pharmacia). The immunoprecipitates were washed five times with the lysis buffer and twice with kinase buffer containing 40 mM Hepes (pH 7.4), 0.5 mM dithiothreitol, 5 mM MnCl2, and 0.1 mM sodium-o-vanadate. The immunoprecipitates were suspended in kinase buffer and aliquots corresponding to 40 μg of cell lysate protein were preincubated with or without tyrphostin for 15 min at 30° C. Then, the kinase reaction was performed in the presence of 2 μg of acid-treated enolase and 10 μCi of [γ-^32 P]ATP (2 μM) in a final volume of 30 μl. The reaction was terminated by addition of SDS-PAGE sample buffer (6% SDS, 30% β-mercaptoetlhanol, 40% glycerol, and 0.5 mg/ml bromophenol blue) and the incorporation of radioactivity in the enolase was analyzed by SDS-PAGE and autoradiography as well as Phosphor-Imager quantification.

[1] = test system: porcine aortic smooth muscle cells (SMC); experiment: Inhibition of cell proliferation and recovery, porcine SMC; format: cell-based; conditions: for inhibitory effect on porcine SMC growth (in words) / toxicity on SMC / inhibition at 10 µM: 10 μM; for inhibitory effect on porcine SMC growth (in words): FIGS. 3-7; for toxicity on SMC / reversibility of the inhibitory effect / recovery of SMC growth after washout: porcine SMC; for inhibition at 10 µM: Sus scrofa; for reversibility of the inhibitory effect / recovery of SMC growth after washout: cultures washed, cells allowed to recover
Description: Smooth muscle cells (SMC) were obtained under aseptic conditions from porcine abdominal aortas, and human internal mammary arteries (IMA). Specimens from the operating room were transferred on ice to the tissue culture room. Each artery was cut open and the endothelial surface mechanically scraped. […] The tissue fragments were then placed in an incubator at 37° C. under 9% CO2 atmosphere until SMC outgrowth was detected (typically within 3-7 days). […] For experiments testing the effect of tyrphostins on growth inhibition and recovery (see below), SMC from passages 1-3 were replated in 15 mm wells pretreated with 3 μg/cm^2 fibronectin (Biological Industries, Kibbutz Beit Haemek, Israel) at 15,000 cells/well.
Inhibition of cell proliferation and recovery: Monolayer cell growth inhibition and recovery experiments were repeated 3 or 4 times. Each experiment was performed in triplicate. […] Cultures were treated with a tyrphostin (10 μM) dissolved in 0.1% DMSO on days 1 and 3. On day 6, cultures were washed and the cells allowed to recover. Typically cells were counted on days 3 and 5 for inhibition, and on days 7, 10 and 15 for recovery, other schedules were also employed as reported below.

[2] = 120 h, by day 5 (day given for AG1295 and AG1992), read-out: reduction in SMC count / inhibition of SMC growth over control
[3] = Table 2, read-out: mean reduction in SMC count compared to control cells (maximal inhibition in SMC growth)

T1 sequence (Q01279 25-1210): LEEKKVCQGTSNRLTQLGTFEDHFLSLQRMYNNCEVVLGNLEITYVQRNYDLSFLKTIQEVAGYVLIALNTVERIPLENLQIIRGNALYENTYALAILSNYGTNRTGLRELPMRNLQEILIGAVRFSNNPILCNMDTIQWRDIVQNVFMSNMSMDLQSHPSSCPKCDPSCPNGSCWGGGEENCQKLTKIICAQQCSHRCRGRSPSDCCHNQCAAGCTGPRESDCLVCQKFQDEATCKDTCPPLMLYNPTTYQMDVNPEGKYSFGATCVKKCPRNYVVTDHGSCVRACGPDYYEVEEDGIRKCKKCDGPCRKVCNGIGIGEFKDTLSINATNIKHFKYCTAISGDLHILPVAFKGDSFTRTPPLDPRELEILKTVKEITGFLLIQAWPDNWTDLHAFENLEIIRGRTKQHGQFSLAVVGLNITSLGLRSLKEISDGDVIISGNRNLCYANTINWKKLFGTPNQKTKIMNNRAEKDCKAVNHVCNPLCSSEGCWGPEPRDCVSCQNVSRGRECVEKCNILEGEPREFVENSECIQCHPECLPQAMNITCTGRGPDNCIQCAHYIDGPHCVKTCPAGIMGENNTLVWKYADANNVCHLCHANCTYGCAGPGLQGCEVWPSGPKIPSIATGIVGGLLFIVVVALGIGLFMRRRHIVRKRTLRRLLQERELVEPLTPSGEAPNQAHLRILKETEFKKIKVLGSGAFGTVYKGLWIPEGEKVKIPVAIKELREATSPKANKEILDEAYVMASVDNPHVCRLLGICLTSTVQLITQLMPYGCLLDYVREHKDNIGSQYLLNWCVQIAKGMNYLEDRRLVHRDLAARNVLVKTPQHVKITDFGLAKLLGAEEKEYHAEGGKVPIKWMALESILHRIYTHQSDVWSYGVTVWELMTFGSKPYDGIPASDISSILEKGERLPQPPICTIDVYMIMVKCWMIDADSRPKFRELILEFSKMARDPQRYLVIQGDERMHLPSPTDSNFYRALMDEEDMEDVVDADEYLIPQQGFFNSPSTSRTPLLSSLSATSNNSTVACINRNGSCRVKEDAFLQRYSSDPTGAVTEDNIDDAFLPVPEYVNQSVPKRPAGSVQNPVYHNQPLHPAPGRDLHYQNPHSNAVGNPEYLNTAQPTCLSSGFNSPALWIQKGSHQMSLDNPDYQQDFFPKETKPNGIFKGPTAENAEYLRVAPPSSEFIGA

Row | Structure (SMILES) | IC50 (EGFR) [µM] | IC50 (PDGFR) [nM] | IC50 (SRC kinase) [µM] | inhibitory effect on porcine SMC growth (in words) [1] | toxicity on SMC [1] | inhibition at 10 µM [1, 2] [%] | inhibition at 10 µM ([1]; FIG. 7 experiment, read-out: maximal inhibitory effect on porcine SMC proliferation) [%] | inhibition at 10 µM [1, 3] [%] | reversibility of the inhibitory effect / recovery of SMC growth after washout [1] | inhibition at 10 µM ([1]; FIG. 6 experiment, read-out: maximal inhibitory effect on porcine SMC proliferation) [%]
1 | Cc1nc2cc3nc(-c4cccs4)cnc3cc2n1C [AG1992] | > 30 | 1000 | > 30 | very potent growth inhibition effect; also recorded: very effective proliferation inhibitors | low lasting toxicity | 87 | 89 | 87 | completely reversible | –
2 | Cc1nc2cc3nc(-c4ccccc4)cnc3cc2n1C [AG1851] | > 30 | 5000 | > 30 | very potent growth inhibition effect; also recorded: most effective inhibitory response; also recorded: highly effective in blocking proliferation | without having a substantial toxic effect; also recorded: low lasting toxicity | 79 | – | 79 | completely reversible; also recorded: normal cell growth appeared immediately after treatment with AG1851 was discontinued | 78
